Measured values as given in patent US20220002551A1, “A NOVEL CLASS OF PIGMENTS IN ASPERGILLUS” (DANMARKS TEKNISKE UNIVERSITET, priority 2019, published 2022).

Experiment: Color intensity E1% of cavernamine-L powder and its formulation
Format: physicochemical
Procedure: The dilution mixture was adjusted to pH 5 with Sodium Hydroxide 2 M. The cavernamine-L powder was added to the dilution mixture in a concentration of 0.5 g/L and mixed for 5 minutes. The colored solution was then frozen prior to lyophilzation. Diluted red powder was recovered and the color intensity of the formulated cavernamine-L was detected to be E1% (at 492 nm) of 2.2, compared to E1% (at 492 nm) of 220 of original pure cavernamine-L powder.

color intensity E1% (at 492 nm): 220
Structure (SMILES): C/C=C\C1=CC2=CC3=C(C(=O)C(C)CC)C(=O)OC3(C)C(=O)C2=CN1C(CC(C)C)C(=O)O (stereo not drawn) [cis-cavernamine-L]
